Patent US20070128217A1 (priority 2003, published 2007)

Key:
[1] = system: recombinant human anti-SARS-CoV antibody 03-018; assay type: binding; parameters: Binding of antibody 03-018 to linear peptides of the N protein of SARS-CoV Urbani / Binding of antibody 03-018 to looped/cyclic peptides of the N protein of SARS-CoV Urbani: unit not given here
[2] = system: rabbit serum obtained by immunizing a rabbit with the SARS-CoV strain Frankfurt 1; assay type: binding; parameters: Binding of a rabbit serum to linear peptides / Binding of a rabbit serum to looped peptides / Rabbit serum linear peptides / Rabbit serum looped peptides / Binding of a rabbit serum to linear peptides of protein N of SARS-CoV Urbani (Rabbit serum linear peptides) / Binding of a rabbit serum to looped/cyclic peptides of protein N of SARS-CoV Urbani (Rabbit serum looped peptides): unit not given here
[3] = system: control sera (pooled serum of ten healthy LUMC hospital workers; commercial negative donor pooled serum from the Dutch bloodbank); assay type: binding, human; parameters: Binding of Control serum LUMC to linear peptides / Binding of Control serum Blood-bank to linear peptides / Binding of Control serum LUMC to looped peptides / Binding of Control Serum Blood-Bank to Looped peptides / Binding of Control serum LUMC to linear peptides of the protein M of SARS-CoV Urbani / Binding of Control serum Blood-bank to linear peptides of the protein M of SARS-CoV Urbani / Binding of Control serum LUMC to looped peptides of the protein M of SARS-CoV Urbani / Binding of Control Serum Blood-Bank to Looped peptides of the protein M of SARS-CoV Urbani: unit not given here
[4] = system: antibodies in sera from SARS patients (sera 1a, 1b, 2, 6, 37, 62, London, SARS-yellow, SARS-green); assay type: binding, human; parameters: Binding of serum 6 to linear peptides of protein X1 of SARS-CoV Urbani / Binding of serum 37 to linear peptides of protein X1 of SARS-CoV Urbani / Binding of serum 6 to looped/cyclic peptide (PEPSCAN-ELISA) / Binding of serum 37 to looped/cyclic peptide (PEPSCAN-ELISA) / Binding of serum 37 to looped/cyclic peptides of protein X1 of SARS-CoV Urbani / Binding of serum 6 to linear peptides of protein X2 / Binding of serum 37 to linear peptides of protein X2 / Binding of serum 37 to looped/cyclic peptides of protein X2 of SARS-CoV Urbani / Binding of serum 6 to linear peptides of protein M of SARS-CoV Urbani / Binding of serum 37 to linear peptides of protein M of SARS-CoV Urbani / Binding of serum 6 to looped/cyclic peptides of protein M of SARS-CoV Urbani / Binding of serum 37 to looped/cyclic peptides of protein M of SARS-CoV Urbani / Binding of serum 6 to linear peptides of protein X3 of SARS-CoV Urbani / Binding of serum 37 to linear peptides of protein X3 of SARS-CoV Urbani / Binding of serum 37 to looped/cyclic peptides of protein X3 of SARS-CoV Urbani / Binding of serum 6 to linear peptides of protein X4 of SARS-CoV Urbani / Binding of serum 37 to linear peptides of protein X4 of SARS-CoV Urbani / Binding of serum 37 to looped/cyclic peptides of protein X4 of SARS-CoV Urbani / Binding of serum 6 to linear peptides of protein X5 of SARS-CoV Urbani / Binding of serum 37 to linear peptides of protein X5 of SARS-CoV Urbani / Binding of serum 37 to looped/cyclic peptides of protein X5 of SARS-CoV Urbani / Binding of serum 6 to linear peptides of protein N of SARS-CoV Urbani / Binding of serum 37 to linear peptides of protein N of SARS-CoV Urbani / Binding of serum 6 to linear peptide (PEPSCAN-ELISA) / Binding of serum 1a to looped/cyclic peptides of protein N of SARS-CoV Urbani / Binding of serum 1b to looped/cyclic peptides of protein N of SARS-CoV Urbani / Binding of serum 2 to looped/cyclic peptides of protein N of SARS-CoV Urbani / Binding of serum 6 to looped/cyclic peptides of protein N of SARS-CoV Urbani / Binding of serum 37 to looped/cyclic peptides of protein N of SARS-CoV Urbani / Binding of serum 62 to looped/cyclic peptides of protein N of SARS-CoV Urbani / Binding of serum London to looped/cyclic peptides of protein N of SARS-CoV Urbani / Binding of serum SARS-green to looped/cyclic peptides of protein N of SARS-CoV Urbani: unit not given here

Sequence | Binding of antibody 03-018 to linear peptides of the N protein of SARS-CoV Urbani [1] | Binding of antibody 03-018 to looped/cyclic peptides of the N protein of SARS-CoV Urbani [1] | Binding of a rabbit serum to linear peptides of protein N of SARS-CoV Urbani (Rabbit serum linear peptides) [2] | Binding of a rabbit serum to looped/cyclic peptides of protein N of SARS-CoV Urbani (Rabbit serum looped peptides) [2] | Binding of Control Serum Blood-Bank to Looped peptides [3] | Binding of Control serum Blood-bank to linear peptides [3] | Binding of Control serum LUMC to linear peptides [3] | Binding of Control serum LUMC to looped peptides [3] | Binding of serum 1a to linear peptides of protein N of SARS-CoV Urbani [4] | Binding of serum 1a to looped/cyclic peptides of protein N of SARS-CoV Urbani [4] | Binding of serum 1b to linear peptides of protein N of SARS-CoV Urbani [4] | Binding of serum 1b to looped/cyclic peptides of protein N of SARS-CoV Urbani [4] | Binding of serum 2 to linear peptides of protein N of SARS-CoV Urbani [4] | Binding of serum 2 to looped/cyclic peptides of protein N of SARS-CoV Urbani [4] | Binding of serum 6 to looped/cyclic peptides of protein N of SARS-CoV Urbani [4] | Binding of serum 37 to looped/cyclic peptides of protein N of SARS-CoV Urbani [4] | Binding of serum 62 to looped/cyclic peptides of protein N of SARS-CoV Urbani [4] | Binding of serum London to looped/cyclic peptides of protein N of SARS-CoV Urbani [4] | Binding of serum SARS-green to looped/cyclic peptides of protein N of SARS-CoV Urbani [4] | Binding of serum SARS-yellow to looped/cyclic peptides of protein N of SARS-CoV Urbani [4] | further results
GIVWVATEGALNTPK | 0.1 | 0.2 | 0.2 | 0.5 | 0.5 | 1.0 | 1.0 | 0.5 | 0.3 | 0.3 | 0.2 | 0.1 | 0.5 | 0.4 | 0.2 | 0.5 | 0.4 | 0.4 | 0.3 | 0.3 | Binding of serum 6 to linear peptides of protein N of SARS-CoV Urbani [4]: 0.3; Binding of serum 37 to linear peptides of protein N of SARS-CoV Urbani [4]: 0.9; Binding of serum 62 to linear peptides of protein N of SARS-CoV Urbani [4]: 0.9; Binding of serum London to linear peptides of protein N of SARS-CoV Urbani [4]: 0.6; Binding of serum SARS-green to linear peptides of protein N of SARS-CoV Urbani [4]: 1.0; Binding of serum SARS-yellow to linear peptides of protein N of SARS-CoV Urbani [4]: 0.8
GLPNNTASWFTALTQ | 0.1 | 0.3 | 0.1 | 0.4 | 0.8 | 0.7 | 0.6 | 0.7 | 0.2 | 0.4 | 0.1 | 0.2 | 0.2 | 0.4 | 0.3 | 0.7 | 0.7 | 0.4 | 0.6 | 0.5 | Binding of serum 6 to linear peptides of protein N of SARS-CoV Urbani [4]: 0.1; Binding of serum 37 to linear peptides of protein N of SARS-CoV Urbani [4]: 0.7; Binding of serum 62 to linear peptides of protein N of SARS-CoV Urbani [4]: 0.6; Binding of serum London to linear peptides of protein N of SARS-CoV Urbani [4]: 0.4; Binding of serum SARS-green to linear peptides of protein N of SARS-CoV Urbani [4]: 0.4; Binding of serum SARS-yellow to linear peptides of protein N of SARS-CoV Urbani [4]: 0.4
GNSRNSTPGSSRGNS | 0.1 | 0.2 | 0.2 | 0.8 | 0.6 | 0.8 | 0.7 | 0.7 |  | 0.6 |  | 0.5 |  | 0.4 | 0.4 | 0.5 | 0.5 | 0.3 | 0.1 | 0.5 | Binding of serum 1a to linear peptide (PEPSCAN-ELISA) [4]: 0.7; Binding of serum 1b to linear peptide (PEPSCAN-ELISA) [4]: 0.5; Binding of serum 2 to linear peptide (PEPSCAN-ELISA) [4]: 0.2; Binding of serum 6 to linear peptide (PEPSCAN-ELISA) [4]: 0.2; Binding of serum 37 to linear peptide (PEPSCAN-ELISA) [4]: 0.7; Binding of serum 62 to linear peptide (PEPSCAN-ELISA) [4]: 0.7; Binding of serum London to linear peptide (PEPSCAN-ELISA) [4]: 0.5; Binding of serum SARS-green to linear peptide (PEPSCAN-ELISA) [4]: 0.2; Binding of serum SARS-yellow to linear peptide (PEPSCAN-ELISA) [4]: 0.7
GPEQTQGNFGDQDLI | 0.1 | 0.2 | 0.2 | 0.3 | 0.5 | 0.8 | 0.8 | 0.6 |  | 0.4 |  | 0.4 |  | 0.4 | 0.2 | 0.6 | 0.4 | 0.3 | 0.9 | 0.6 | Recognition of the peptide by sera of SARS-CoV infected individuals, and form (linear, looped/cyclic) in which it is recognized [4]: recognized in linear form
GPQSNQRSAPRITFG |  |  |  |  | 0.7 | 0.6 | 0.5 | 0.8 | 0.2 | 0.3 | 0.1 | 0.2 | 0.2 | 0.3 | 0.3 | 0.6 | 0.4 | 0.4 | 0.3 | 0.8 | Recognition of the peptide by antibody 03-018 [1]: recognized; Recognition of the peptide by the rabbit serum [2]: also recognized; Binding of serum 6 to linear peptides of protein N of SARS-CoV Urbani [4]: 0.1; Binding of serum 37 to linear peptides of protein N of SARS-CoV Urbani [4]: 0.6; Binding of serum 62 to linear peptides of protein N of SARS-CoV Urbani [4]: 0.7; Binding of serum London to linear peptides of protein N of SARS-CoV Urbani [4]: 0.4; Binding of serum SARS-green to linear peptides of protein N of SARS-CoV Urbani [4]: 0.4; Binding of serum SARS-yellow to linear peptides of protein N of SARS-CoV Urbani [4]: 0.5
